In patent US20240423904A1, “Systems and Methods for Controlling Chemical Reactions Using Ultrasound” (priority 2023, published 2024):

Legend:
Raji cells = assay: MTT cell viability assay on Raji cells; assay type: cell-based; settings: Homo sapiens, 48 h, pure CPT, 2 days at 37° C.
Procedure: Raji cells were incubated in RPMI 1640 media with 10% fetal bovine serum and 1% antibacterial Penicillin/Streptomycin (PenStrep) at 37° C. and 5% CO2. An MTT colorimetric assay was used to quantify cell viability.
Raji cells were used to evaluate the effectiveness of CPT release for potential chemotherapy. Raji cells were incubated in RPMI 1640 media, with 10% fetal bovine serum and 1% antibacterial Penicillin/Streptomycin (PenStrep) at 37° C. and 5% CO2. The instructions provided by the manufacturer (Abcam) were followed to perform the MTT assay. Approximately 10,000 Raji cells suspended in 150 μL of media were seeded into each well of a 96-well plate. Subsequently, 50 μL of polymer sample (or pure CPT) at varying concentrations was added to corresponding wells. For calibration purposes, wells without cells and wells with only cells and media were also prepared, representing 0% and 100% cell viability, respectively. After 48 hours of incubation, cells were spun down inside the plate and media were carefully aspirated. Then 50 μL of serum free media and 50 μL of MTT solution were added to each well. Following a 3 h incubation, 150 μL MTT solution was added to each well. […] The absorbance at 590 nm was measured by a microplate reader (TECAN Spark) to quantify the cell viability in each well. Cell viability is calculated using eq.

[1] = Stability of free CPT upon exposure to FUS, HPLC; assay type: physicochemical; settings: FUS 10 min, presence or absence of GVs (1.4 nM)
Procedure: Experiments were performed in duplicate on a sample of CPT in water (˜3 μM). After insonation, samples were diluted 3:1 with a stock solution of IS (40 μM) and concentrations were determined from integration of the peak corresponding to CPT relative to that of the internal standard and scaled by 4/3 to account for dilution.

[2] = Thermally activated release of camptothecin from mechanophore bis-initiator, 1H NMR and LCMS; assay type: physicochemical; settings: 24 h at 100° C. in toluene-d8, then diluted into 3:1 acetonitrile/methanol
Procedure: Several embodiments provide confirmation of CPT release via ^1H NMR spectroscopy and LCMS. Prior to mechanochemical activation studies, we first confirmed that camptothecin was released in polar protic solvent upon unmasking of the expected unstable furfuryl carbonate. To enable characterization, the furfuryl carbonate species was generated thermally from small molecule initiator 1-CPT. Masked furfuryl carbonate 1-CPT was dissolved in toluene-d8 and analyzed by ^1H NMR spectroscopy before and after heating for 24 h at 100° C. Comparison to spectrum of the expected maleimide fragment confirmed significant thermal retro-Diels-Alder reaction occurred under these conditions. A drop of this solution was then diluted into 3:1 acetonitrile/methanol and analyzed by LCMS (gradient of 0-50% acetonitrile/water over 4 minutes).

In the case of `CC[C@@]1(O)C(=O)OCc2c1cc1n(c2=O)Cc2cc3ccccc3nc2-1` [CPT, camptothecin], the EC50 (Raji cells) is reported as ~25 nM and the “stability upon exposure to FUS” value [1] is reported as “stable”.
For `CC[C@@]1(OC(=O)OC(C)[C@]23O[C@](COC(=O)C(C)(C)Br)(C=C2Oc2ccccc2)[C@@H]2C(=O)N(CCOC(=O)C(C)(C)Br)C(=O)[C@@H]23)C(=O)OCc2c1cc1n(c2=O)Cc2cc3ccccc3nc2-1` (stereo partly drawn) [1-CPT, ((3aR,4R,7S,7aS)-2-(2-((2-bromo-2-methylpropanoyl)oxy)ethyl)-7-(1-(((((S)-4-ethyl-3,14-dioxo-3,4,12,14-tetrahydro-1H-pyrano[3′,4′:6,7]indolizino[1,2-b]quinolin-4-yl)oxy)carbonyl)oxy)ethyl)-1,3-dioxo-6-phenoxy-1,2,3,3a,7,7a-hexahydro-4H-4,7-epoxyisoindol-4-yl)methyl 2-bromo-2-methylpropanoatebromo-2-methylpropanoate], the “release of CPT after thermal retro-Diels-Alder reaction” value [2] was “CPT is released”.
